Laboratory results from patent US10821115B2, “Compounds that inhibit Mcl-1 protein” (priority 2017, dated 2020).
pIC50: −log10 of the molar value. Where two headings read alike, the source gives them in different places.

Assays:
[1] = molecular target: recombinant human Mcl-1 (residues 171-327) / Bim interaction (Homo sapiens (Human), UniProt Q07820); experiment: biochemical; format: binding; conditions: read-out: Mcl-1 HTRF IC50
[2] = tested on: human multiple myeloma cell line, OPM-2; experiment: Cell viability assay (OPM-2 10 FBS), CellTiter-Glo; format: cell-based
Outline: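 Cells were seeded at 3000 cells/well in RPMI 1640 with 10% FBS and exposed to serially diluted compounds for 16 h at 37 °C, 5% CO2.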

[3] = TR-FRET, Mcl-1(171-327) / biotin-Bim (51-76)
[4] = read-out: OPM-2 10% FBS IC50 IP, OPM-2 cells, 10% FBS, 16 h, CellTiter-Glo
[5] = Homo sapiens, OPM-2, 16 h, read-out: OPM-2 10% FBS IC50 IP, OPM-2 cells, 10% FBS, 16 h, CellTiter-Glo
[6] = 0.1 nM Mcl-1(171-327), 0.05 nM biotin-Bim (51-76)
[7] = Homo sapiens, OPM-2, 16 h, read-out: OPM-2 10% FBS IC50 IP, OPM-2 cells, 10% FBS, 16 h incubation

Sequence of recombinant human Mcl-1 (residues 171-327) / Bim interaction (Q07820 171-327): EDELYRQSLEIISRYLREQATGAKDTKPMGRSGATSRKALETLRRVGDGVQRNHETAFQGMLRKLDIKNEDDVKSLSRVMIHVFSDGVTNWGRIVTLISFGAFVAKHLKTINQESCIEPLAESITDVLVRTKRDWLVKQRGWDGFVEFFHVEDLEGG

Row | Compound | pIC50 [1, 3] | pIC50 [2, 5] | pIC50 [1, 6] | pIC50 [2, 7] | further results
1 | C[C@H](C(=O)O)[C@@]1(O)/C=C/C[C@H](C)[C@@H](C)S(=O)(=O)NC(=O)c2ccc3c(c2)N(C[C@@H]2CC[C@H]21)C[C@@]1(CCCc2cc(Cl)ccc21)CO3 (single isomer, unassigned) [Example 100123] | 10.04 |  |  |  | pIC50 [2, 4]: 5.58
2 | CC(C)[C@@]1(O)/C=C/C[C@H](C)[C@@H](C)S(=O)(=O)NC(=O)c2ccc3c(c2)N(C[C@@H]2CC[C@H]21)C[C@@]1(CCCc2cc(Cl)ccc21)CO3 [Example 100210, (1S,3′R,6′R,7′R,8′E,11′S,12′R)-6-chloro-7′-hydroxy-11′,12′-dimethyl-7′-(2-propanyl)-3,4-dihydro-2H,15′H-spiro[naphthalene-1,22′-[20]oxa[13]thia[1,14]diazatetracyclo [14.7.2.0~3,6~.0~19,24~]pentacosa[8,16,18,24]tetraen]-15′-one 13′,13′-dioxide] | 8.46 | 5.47 |  |  | 
3 | C[C@@H]1[C@@H](C)C/C=C/[C@@](O)(c2ncccc2F)[C@@H]2CC[C@H]2CN2C[C@@]3(CCCc4cc(Cl)ccc43)COc3ccc(cc32)C(=O)NS1(=O)=O (single isomer, unassigned) [Example 100390] | 9.73 | 6.19 |  |  | 
4 | CO[C@@]1(C)/C=C/C[C@H](C)[C@@H](CCO)S(=O)(=O)NC(=O)c2ccc3c(c2)N(C[C@@H]2CC[C@H]21)C[C@@]1(CCCc2cc(Cl)ccc21)CO3 (single isomer, unassigned) [Example 100596] | 9.64 |  |  |  | pIC50 [2, 4]: 6.73
5 | C[C@@H]1[C@@H](C)CCC[C@@](C=O)(CN2CCOCC2)[C@@H]2CC[C@H]2CN2C[C@@]3(CCCc4cc(Cl)ccc43)COc3ccc(cc32)C(=O)NS1(=O)=O [Example 100336, (1S,3′R,6′R,7′S,11′S,12′R)-6-chloro-11′,12′-dimethyl-7′-(4-morpholinylmethyl)-15′-oxo-3,4-dihydro-2H-spiro[naphthalene-1,22′-[20]oxa[13]thia[1,14]diazatetracyclo [14.7.2.0~3,6~.0~19,24~]pentacosa[16,18,24]triene]-7′-carbaldehyde 13′,13′-dioxide] |  | 5.74 |  |  | pIC50 [1]: 8.95
6 | COCC[C@@H]1[C@@H](C)C/C=C/[C@@](CN2CCN(C(C)C)CC2)(OC)[C@@H]2CC[C@H]2CN2C[C@@]3(CCCc4cc(Cl)ccc43)COc3ccc(cc32)C(=O)NS1(=O)=O [Example 188, (1S,3′R,6′R,7′R,8′E,11′S,12′R)-6-chloro-7′-methoxy-12′-(2-methoxyethyl)-11′-methyl-7′-((4-(1-methylethyl)-1-piperazinyl)methyl)-3,4-dihydro-2H,15′H-spiro[naphthalene-1,22′-[20]oxa[13]thia[1,14]diazatetracyclo [14.7.2.0~3,6~.0~19,24~]pentacosa[8,16,18,24]tetraen]-15′-one 13′,13′-dioxide] |  |  | 10.08 | 7.42 | 
7 | CO[C@@]1(CN2CC3(COC3)C2)/C=C/C[C@H](C)[C@@H](C)S(=O)(=O)NC(=O)c2ccc3c(c2)N(C[C@@H]2CC[C@H]21)C[C@@]1(CCCc2cc(Cl)ccc21)CO3 [Example 203, (1S,3′R,6′R,7′S,8′E,11′S,12′R)-6-chloro-7′-methoxy-11′,12′-dimethyl-7′-(2-oxa-6-azaspiro[3.3]hept-6-ylmethyl)-3,4-dihydro-2H,15′H-spiro[naphthalene-1,22′-[20]oxa[13]thia[1,14]diazatetracyclo [14.7.2.0~3,6~.0~19,24~]pentacosa[8,16,18,24]tetraen]-15′-one 13′,13′-dioxide] |  |  | 9.95 | 6.95 | 
8 | C[C@@H]1[C@@H](C)C/C=C/[C@@](O)(CC(=O)N(C)c2ccccc2)[C@@H]2CC[C@H]2CN2C[C@@]3(CCCc4cc(Cl)ccc43)COc3ccc(cc32)C(=O)NS1(=O)=O [Example 100247, 2-((1S,3′R,6′R,7′S,8′E,11′S,12′R)-6-chloro-7′-hydroxy-11′,12′-dimethyl-13′,13′-dioxido-15′-oxo-3,4-dihydro-2H-spiro[naphthalene-1,22′-[20]oxa[13]thia[1,14]diazatetracyclo [14.7.2.0~3,6~.0~19,24~]pentacosa[8,16,18,24]tetraen]-7′-yl)-N-methyl-N-phenylacetamide] | 9.27 | 6.20 |  |  | 
9 | CO[C@@]1(CC2=NC(C)(C)C(=O)O2)/C=C/C[C@H](C)[C@@H](C)S(=O)(=O)NC(=O)c2ccc3c(c2)N(C[C@@H]2CC[C@H]21)C[C@@]1(CCCc2cc(Cl)ccc21)CO3 [Example 100547, (1S,3′R,6′R,7′S,8′E,11′S,12′R)-6-chloro-7′-((4,4-dimethyl-5-oxo-4,5-dihydro-1,3-oxazol-2-yl)methyl)-7′-methoxy-11′,12′-dimethyl-3,4-dihydro-2H,15′H-spiro[naphthalene-1,22′-[20]oxa[13]thia[1,14]diazatetracyclo [14.7.2.0~3,6~.0~19,24~]pentacosa[8,16,18,24]tetraen]-15′-one 13′,13′-dioxide] | 10.51 | 5.73 |  |  | 
10 | CO[C@@]1(CN2CCN3CCS(=O)(=O)C[C@@H]3C2)/C=C/C[C@H](C)[C@@H](C)S(=O)(=O)NC(=O)c2ccc3c(c2)N(C[C@@H]2CC[C@H]21)C[C@@]1(CCCc2cc(Cl)ccc21)CO3 (single isomer, unassigned) [Example 232] |  |  | 9.85 |  | pIC50 ([2]; read-out: OPM-2 10% FBS IC50 IP, OPM-2 cells, 10% FBS, 16 h incubation): 6.70
11 | COCC(C)(C)N1CCN(C[C@@]2(OC)/C=C/C[C@H](C)[C@@H](C)S(=O)(=O)NC(=O)c3ccc4c(c3)N(C[C@@H]3CC[C@H]32)C[C@@]2(CCCc3cc(Cl)ccc32)CO4)CC1 [Example 333, (1S,3′R,6′R,7′R,8′E,11′S,12′R)-6-chloro-7′-methoxy-7′-((4-(2-methoxy-1,1-dimethylethyl)-1-piperazinyl)methyl)-11′,12′-dimethyl-3,4-dihydro-2H,15′H-spiro[naphthalene-1,22′-[20]oxa[13]thia[1,14]diazatetracyclo [14.7.2.0~3,6~.0~19,24~]pentacosa[8,16,18,24]tetraen]-15′-one 13′,13′-dioxide] |  |  | 10.06 | 7.09 | 
12 | CO[C@@]1(CN(C)C)/C=C/C[C@H](C)[C@@H](C)S(=O)(=O)NC(=O)c2ccc3c(c2)N(C[C@@H]2CC[C@H]21)C[C@@]1(CCCc2cc(Cl)ccc21)CO3 [Example 66, (1S,3′R,6′R,7′S,8′E,11′S,12′R)-6-chloro-7′-((dimethylamino)methyl)-7′-methoxy-11′,12′-dimethyl-3,4-dihydro-2H,15′H-spiro[naphthalene-1,22′-[20]oxa[13]thia[1,14]diazatetracyclo [14.7.2.0~3,6~.0~19,24~]pentacosa[8,16,18,24]tetraen]-15′-one 13′,13′-dioxide] |  |  | 9.61 | 6.50 | 
13 | CO[C@]1(CCOS(C)(=O)=O)/C=C/C[C@H](C)[C@@H](C)S(=O)(=O)NC(=O)c2ccc3c(c2)N(C[C@@H]2CC[C@H]21)C[C@@]1(CCCc2cc(Cl)ccc21)CO3 [Example 100351, 2-((1S,3′R,6′R,7′R,8′E,11′S,12′R)-6-chloro-7′-methoxy-11′,12′-dimethyl-13′,13′-dioxido-15′-oxo-3,4-dihydro-2H-spiro[naphthalene-1,22′-[20]oxa[13]thia[1,14]diazatetracyclo [14.7.2.0~3,6~.0~19,24~]pentacosa[8,16,18,24]tetraen]-7′-yl)ethyl methanesulfonate] | 9.94 | 5.69 |  |  | 
14 | C[C@@H]1[C@@H](C)CCC[C@@](O)(CC(=O)N2CCCCC2)[C@@H]2CC[C@H]2CN2C[C@@]3(CCCc4cc(Cl)ccc43)COc3ccc(cc32)C(=O)NS1(=O)=O [Example 100090, (1S,3′R,6′R,7′R,11′S,12′R)-6-chloro-7′-hydroxy-11′,12′-dimethyl-7′-(2-oxo-2-(1-piperidinyl)ethyl)-3,4-dihydro-2H,15′H-spiro[naphthalene-1,22′-[20]oxa[13]thia[1,14]diazatetracyclo [14.7.2.0~3,6~.0~19,24~]pentacosa[16,18,24]trien]-15′-one 13′,13′-dioxide] | 9.10 |  |  |  | pIC50 [2, 4]: 6.10
15 | CO[C@]1(CN2CCN3CCCC[C@@H]3C2)/C=C/C[C@H](C)[C@@H](CC=O)S(=O)(=O)NC(=O)c2ccc3c(c2)N(C[C@@H]2CC[C@H]21)C[C@@]1(CCCc2cc(Cl)ccc21)CO3 [Example 360, ((1S,3′R,6′R,7′R,8′E,11′S,12′R)-6-Chloro-7′-methoxy-11′-methyl-7′-((9aR)-octahydro-2H-pyrido[1,2-a]pyrazin-2-ylmethyl)-13′,13′-dioxido-15′-oxo-3,4-dihydro-2H-spiro[naphthalene-1,22′-[20]oxa[13]thia[1,14]diazatetracyclo[14.7.2.0-3,6˜.0˜19,24˜]pentacosa[8,16,18,24]tetraen]-12′-yl)acetaldehyde] |  |  | 8.97 | 5.62 | 
16 | CO[C@@]1(CN2CCN3CCOC[C@@H]3C2)/C=C/C[C@H](C)[C@@H](CCN2CCOCC2)S(=O)(=O)NC(=O)c2ccc3c(c2)N(C[C@@H]2CC[C@H]21)C[C@@]1(CCCc2cc(Cl)ccc21)CO3 [Example 361, (1S,3′R,6′R,7′S,8′E,11′S,12′R)-6-chloro-7′-((9aS)-hexahydropyrazino[2,1-c][1,4]oxazin-8(1H)-ylmethyl)-7′-methoxy-11′-methyl-12′-(2-(4-morpholinyl)ethyl)-3,4-dihydro-2H,15′H-spiro[naphthalene-1,22′-[20]oxa[13]thia[1,14]diazatetracyclo [14.7.2.0~3,6~.0~19,24~]pentacosa[8,16,18,24]tetraen]-15′-one 13′,13′-dioxide] |  |  | 10.00 | 7.55 | 
